Data: patent publication US12491170B2, “Stable treprostinil prodrugs” (United Therapeutics Corporation, priority 2020, dated 2025)
Where two headings read alike, the source gives them in different places.

Assays:
[1] = Stability in cryopreserved hepatocytes, dog; conditions: for AUC: dog
[2] = dog
[3] = Stability in cryopreserved hepatocytes, rat; conditions: for AUC: rat
[4] = Stability in cryopreserved hepatocytes, human; conditions: for AUC: human
[5] = Stability in liver microsomes, dog
Description: (§1) Mixed-gender human liver microsomes, male Sprague-Dawley rat liver microsomes, and male Beagle dog liver microsomes were purchased from XenoTech. The reaction mixture, minus NADPH, was prepared as described below. […] An aliquot of the reaction mixture (without cofactor) was equilibrated in a shaking water bath at 37° C. for 5 minutes. The reaction was initiated by the addition of cofactor, and the mixture was incubated in a shaking water bath at 37° C. Aliquots (200 μL) were withdrawn at 0, 10, 20, 30, and 60 minutes. Test article samples were immediately combined with 400 μL of ice-cold acetonitrile (ACN) to terminate the reaction. […] The samples were then mixed and centrifuged to precipitate proteins. Aliquots of the supernatant were removed, diluted 1:1 into distilled water containing internal standard, and analyzed by LC-MS/MS against calibration standards prepared in a matched matrix. All samples were analyzed for the dosed prodrugs as well as the drug, treprostinil. The test article concentration was compared to the concentration at time 0 to determine the percent of test article remaining at each time point. Half-lives and clearance were calculated using GraphPad software, fitting to a single-phase exponential decay equation.
(§2) • Liver Microsomes 0.5 mg/mL • NADPH (cofactor) 1 mM • Potassium Phosphate, pH 7.4 100 mM • Magnesium Chloride 5 mM • Test Article 1 μM

[6] = Stability in liver microsomes, rat
Description: as §1, §2

[7] = Stability in liver microsomes, human; conditions: for AUC: human
Description: as §1, §2

[8] = rat

Row | Trep Concentration (μM) 0 min [1] | Trep Concentration (μM) 15 min [1] | Trep Concentration (μM) 30 min [1] | Trep Concentration (μM) 60 min [1] | Trep Concentration (μM) 120 min [1] | AUC [1] | AUC [2] | Trep Concentration (μM) 0 min [3] | Trep Concentration (μM) 15 min [3] | Trep Concentration (μM) 30 min [3] | Trep Concentration (μM) 60 min [3] | Trep Concentration (μM) 120 min [3] | AUC [3] | Trep Concentration (μM) 0 min [4] | Trep Concentration (μM) 15 min [4] | Trep Concentration (μM) 30 min [4] | Trep Concentration (μM) 120 min [4] | AUC [4] | Trep Concentration 10 min [5] | Trep Concentration 20 min [5] | Compound | also measured
1 | 0.00247 µM | 0.00312 µM | 0.0106 µM | 0.00355 µM | 0.00568 µM | 0.63 µmol·min/L | 0.23 µmol·min/L | 0 µM | 0.00347 µM | 0.00366 µM | 0.00352 µM | 0.0034 µM | 0.39 µmol·min/L | 0.00177 µM | 0.00195 µM | 0.00202 µM | 0.00197 µM | 0.23 µmol·min/L | 0.00333 µM | 0.00398 µM | CCCCCC(CCC1C(O)CC2Cc3c(cccc3OCC(=O)O)CC21)OCCN1CCOCC1 (stereo not shown) [L] | Trep Concentration (μM) 60 min [4]: 0.00194 µM; Trep Concentration 0 min [5]: 0.00302 µM; Trep Concentration 30 min [5]: 0.00409 µM; Trep Concentration 60 min [5]: 0.00389 µM; Trep Concentration 0 min [6]: 0.00345 µM; Trep Concentration 10 min [6]: 0.00356 µM; Trep Concentration 20 min [6]: 0.00419 µM; Trep Concentration 30 min [6]: 0.00488 µM; Trep Concentration 60 min [6]: 0.00552 µM; Trep Concentration 0 min [7]: 0.00327 µM; Trep Concentration 10 min [7]: 0.00286 µM; Trep Concentration 20 min [7]: 0.00309 µM; Trep Concentration 30 min [7]: 0.00264 µM; Trep Concentration 60 min [7]: 0.00244 µM; AUC [7]: 0.17 µmol·min/L; AUC [8]: 0.28 µmol·min/L
2 | 0 µM | 0.0142 µM | 0.00583 µM | 0.00715 µM | 0.0129 µM | 1.05 µmol·min/L | 1.98 µmol·min/L | 0 µM | 0 µM | 0.00403 µM | 0.00545 µM | 0.00743 µM | 0.56 µmol·min/L | 0 µM | 0.147 µM | 0.194 µM | 0.17 µM | 20.45 µmol·min/L | 0.0246 µM | 0.0324 µM | CCCCCC(CCC1C(O)CC2Cc3c(cccc3OCC(=O)O)CC21)OC(=O)c1ccc(O)cc1 (stereo not shown) [LXVIII] | Trep Concentration 30 min [5]: 0.0375 µM; Trep Concentration 60 min [5]: 0.0382 µM; Trep Concentration 0 min [6]: 0.00607 µM; Trep Concentration 10 min [6]: 0.00792 µM; Trep Concentration 20 min [6]: 0.0105 µM; Trep Concentration 30 min [6]: 0.0127 µM; Trep Concentration 60 min [6]: 0.0145 µM; Trep Concentration 0 min [7]: 0.201 µM; Trep Concentration 10 min [7]: 0.237 µM; Trep Concentration 20 min [7]: 0.246 µM; Trep Concentration 30 min [7]: 0.252 µM; Trep Concentration 60 min [7]: 0.178 µM; AUC [7]: 13.55 µmol·min/L; AUC [8]: 0.69 µmol·min/L
3 | 0 µM | 0 µM | 0 µM | 0 µM | 0.00339 µM | 0.10 µmol·min/L | 0.11 µmol·min/L | 0 µM | 0 µM | 0 µM | 0 µM | 0 µM | 0.00 µmol·min/L | 0 µM | 0 µM | 0 µM | 0 µM | 0.00 µmol·min/L | 0 µM | 0.00553 µM | CCCCCC1CCC2C(CC3Cc4c(cccc4OCC(=O)O)CC32)OP(=O)(Oc2ccccc2)O1 (mixture of isomers) [XXVIII] | Trep Concentration (μM) 60 min [4]: 0 µM; Trep Concentration 0 min [5]: 0 µM; Trep Concentration 30 min [5]: 0.003 µM; Trep Concentration 60 min [5]: 0 µM; Trep Concentration 0 min [6]: 0 µM; Trep Concentration 10 min [6]: 0 µM; Trep Concentration 20 min [6]: 0 µM; Trep Concentration 30 min [6]: 0 µM; Trep Concentration 60 min [6]: 0 µM; Trep Concentration 0 min [7]: 0 µM; Trep Concentration 10 min [7]: 0 µM; Trep Concentration 20 min [7]: 0 µM; Trep Concentration 30 min [7]: 0 µM; Trep Concentration 60 min [7]: 0 µM; AUC [7]: 0.00 µmol·min/L; AUC [8]: 0.00 µmol·min/L
4 | 0 µM | 0 µM | 0.00519 µM | 0.00214 µM | 0.00344 µM | 0.32 µmol·min/L | 0.00 µmol·min/L | 0 µM | 0 µM | 0 µM | 0 µM | 0 µM | 0.00 µmol·min/L | 0 µM | 0 µM | 0 µM | 0 µM | 0.00 µmol·min/L | 0 µM | 0 µM | CCCCCC(CCC1C(O)CC2Cc3c(cccc3OCC(=O)O)CC21)OC(=O)N1CCC(O)CC1 (stereo not shown) [LVIII] | Trep Concentration (μM) 60 min [4]: 0 µM; Trep Concentration 0 min [5]: 0 µM; Trep Concentration 30 min [5]: 0 µM; Trep Concentration 60 min [5]: 0 µM; Trep Concentration 0 min [6]: 0 µM; Trep Concentration 10 min [6]: 0 µM; Trep Concentration 20 min [6]: 0 µM; Trep Concentration 30 min [6]: 0 µM; Trep Concentration 60 min [6]: 0 µM; Trep Concentration 0 min [7]: 0 µM; Trep Concentration 10 min [7]: 0 µM; Trep Concentration 20 min [7]: 0 µM; Trep Concentration 30 min [7]: 0 µM; Trep Concentration 60 min [7]: 0 µM; AUC [7]: 0.00 µmol·min/L; AUC [8]: 0.00 µmol·min/L
5 | 0 µM | 0 µM | 0.00416 µM | 0.00836 µM | 0.00907 µM | 0.74 µmol·min/L | 0.00 µmol·min/L | 0 µM | 0 µM | 0 µM | 0 µM | 0 µM | 0.00 µmol·min/L | 0 µM | 0 µM | 0 µM | 0 µM | 0.00 µmol·min/L | 0 µM | 0 µM | CCCCCC(CCC1C(O)CC2Cc3c(cccc3OCC(=O)O)CC21)OC(=O)NCCO (stereo not shown) [LIX] | Trep Concentration (μM) 60 min [4]: 0 µM; Trep Concentration 0 min [5]: 0 µM; Trep Concentration 30 min [5]: 0 µM; Trep Concentration 60 min [5]: 0 µM; Trep Concentration 0 min [6]: 0 µM; Trep Concentration 10 min [6]: 0 µM; Trep Concentration 20 min [6]: 0 µM; Trep Concentration 30 min [6]: 0 µM; Trep Concentration 60 min [6]: 0 µM; Trep Concentration 0 min [7]: 0 µM; Trep Concentration 10 min [7]: 0 µM; Trep Concentration 20 min [7]: 0 µM; Trep Concentration 30 min [7]: 0 µM; Trep Concentration 60 min [7]: 0 µM; AUC [7]: 0.00 µmol·min/L; AUC [8]: 0.00 µmol·min/L
6 | 0 µM | 0.0841 µM | 0.115 µM | 0.177 µM | 0.214 µM | 18.23 µmol·min/L | 20.45 µmol·min/L | 0 µM | 0.1 µM | 0.141 µM | 0.221 µM | 0.318 µM | 24.16 µmol·min/L | 0 µM | 0.342 µM | 0.304 µM | 0.347 µM | 37.91 µmol·min/L | 0.219 µM | 0.322 µM | CCCCCC(CCC1C(O)CC2Cc3c(cccc3OCC(=O)O)CC21)OC(=O)c1ccc(C)cc1 (stereo not shown) [XLVIII] | Trep Concentration (μM) 60 min [4]: 0.345 µM; Trep Concentration 0 min [5]: 0.119 µM; Trep Concentration 30 min [5]: 0.366 µM; Trep Concentration 60 min [5]: 0.475 µM; Trep Concentration 0 min [6]: 0.0583 µM; Trep Concentration 10 min [6]: 0.0944 µM; Trep Concentration 20 min [6]: 0.0864 µM; Trep Concentration 30 min [6]: 0.0909 µM; Trep Concentration 60 min [6]: 0.123 µM; Trep Concentration 0 min [7]: 0.202 µM; Trep Concentration 10 min [7]: 0.302 µM; Trep Concentration 20 min [7]: 0.322 µM; Trep Concentration 30 min [7]: 0.337 µM; Trep Concentration 60 min [7]: 0.352 µM; AUC [7]: 19.27 µmol·min/L; AUC [8]: 5.76 µmol·min/L
